The molecules below were run against T1, PARP1 (Homo sapiens, UniProt P09874) (assay: In-Cell Western Measurement of PARylation in PARP1 WT and Knockout Cells (HeLa_WT)). Settings: HeLa cells (wild-type PARP1); suppression of hydrogen peroxide-induced PARylation; 60 min pre-treatment, 10 mM H2O2 for 15 min; read-out: HeLa_WT_IC50.
T1 construct: HeLa cells (wide-type with PARP1 gene) were purchased from ATCC; host or cells: HeLa
T1 sequence (P09874 whole entry): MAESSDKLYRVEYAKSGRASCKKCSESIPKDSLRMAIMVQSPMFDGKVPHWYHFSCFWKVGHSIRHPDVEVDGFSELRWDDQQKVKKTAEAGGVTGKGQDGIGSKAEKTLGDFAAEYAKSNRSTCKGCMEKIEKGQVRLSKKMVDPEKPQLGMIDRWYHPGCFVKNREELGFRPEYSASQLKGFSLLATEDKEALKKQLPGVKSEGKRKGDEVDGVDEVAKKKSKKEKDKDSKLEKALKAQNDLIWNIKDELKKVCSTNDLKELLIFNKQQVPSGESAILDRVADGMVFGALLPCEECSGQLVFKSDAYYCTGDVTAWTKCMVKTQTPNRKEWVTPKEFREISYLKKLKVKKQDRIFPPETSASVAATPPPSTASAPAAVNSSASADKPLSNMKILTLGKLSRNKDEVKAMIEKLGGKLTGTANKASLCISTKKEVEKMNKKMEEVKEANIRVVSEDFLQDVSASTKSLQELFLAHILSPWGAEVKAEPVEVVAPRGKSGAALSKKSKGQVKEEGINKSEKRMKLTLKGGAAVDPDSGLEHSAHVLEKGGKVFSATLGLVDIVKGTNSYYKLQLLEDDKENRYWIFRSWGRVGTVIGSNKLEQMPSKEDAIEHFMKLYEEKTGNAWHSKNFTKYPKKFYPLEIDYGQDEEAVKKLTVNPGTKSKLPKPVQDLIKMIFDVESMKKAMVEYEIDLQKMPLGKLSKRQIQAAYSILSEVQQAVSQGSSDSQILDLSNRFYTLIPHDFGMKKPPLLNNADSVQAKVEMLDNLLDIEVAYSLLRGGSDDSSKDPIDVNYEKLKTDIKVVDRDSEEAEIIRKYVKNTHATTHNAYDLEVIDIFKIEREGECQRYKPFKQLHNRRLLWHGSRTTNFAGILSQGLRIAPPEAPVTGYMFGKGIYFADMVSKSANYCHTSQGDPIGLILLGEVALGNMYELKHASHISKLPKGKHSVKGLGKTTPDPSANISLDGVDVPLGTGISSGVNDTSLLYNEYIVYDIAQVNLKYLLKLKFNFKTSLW
Type: cell-based
Procedure: The purpose of this cell-based assay is to measure the potency and selectivity of synthesized PARP inhibitors in suppressing hydrogen peroxide-induced PARylation in cells with and without PARP1 expression. Several cell lines were used in this assay. HeLa cells (wide-type with PARP1 gene) were purchased from ATCC. The HAP1 cell line without the PARP1 gene (#HZGHC003943c006) was purchased from Horizon Discovery. Cells were cultured using complete medium containing 10% fetal bovine serum. One day before the assay, cells were seeded in 96-well plates at the density of 20,000 cells per well in 80 uL complete medium. Compounds were dissolved using DMSO and diluted to the working concentrations using complete medium. Cells were pre-treated with compounds for 60 min and then stimulated with 10 mM hydrogen peroxide for 15 min. After stimulation, cells were immediately fixed using ice-cold methanol for 20 min. After fixation, cells were washed using 1×PBST buffer for 3 times, 5 min each time, to eliminate residual methanol. Cells were blocked for 1 h at room temperature in blocking buffer (10% goat serum, 1% BSA, 0.1% Triton X-100 in PBST). Primary antibody was diluted in blocking buffer at 50 uL per well. Cells were incubated with the primary antibody (Adipogen, AG-20T-0001-M001, 1:300) at 4° C. for 18 h. The wells were then washed using 1×PBST for 3 times, 5 min each time. IRDye® 680RD Goat anti-Mouse IgG (H+L) secondary antibody was diluted at 1/1000 using the diluent buffer and added at 50 uL per well. Secondary antibody incubation was for 1 h at room temperature. Cells were then washed using 1×PBST for 3 times, 5 min each time. The signal was detected and analyzed using LI-COR Odyssey DLx Imaging system. Data were collected and further processed using GraphPad Prism for IC50 estimation.
With `CCN1C(=O)Nc2cc(CN3CCN(c4ccc(C(=O)NCC#N)nc4C)CC3)cc3ncnc1c23` [Compound 15, N-(cyanomethyl)-5-(4-((3-ethyl-2-oxo-2,3-dihydro-1H-pyrimido[4,5,6-de]quinazolin-8-yl)methyl)piperazin-1-yl)-6-methylpicolinamide] the IC50 was ≤ 10 nM. With `CCN1C(=O)Nc2cc(CN3CCN(c4ccc(C(=O)N[C@H]5[C@@H]6COC[C@@H]65)nc4C)CC3)cc3ncnc1c23` [Compound 21, N-((1R,5S,6r)-3-oxabicyclo[3.1.0]hexan-6-yl)-5-(4-((3-ethyl-2-oxo-2,3-dihydro-1H-pyrimido[4,5,6-de]quinazolin-8-yl)methyl)piperazin-1-yl)-6-methylpicolinamide] the IC50 was ≤ 10 nM. `CCN1C(=O)Nc2cc(CN3CCN(c4ccc(C(=O)N[C@H]5C[C@H](O)C5)nc4C)CC3)cc3ncnc1c23` [Compound 20, 5-(4-((3-ethyl-2-oxo-2,3-dihydro-1H-pyrimido[4,5,6-de]quinazolin-8-yl)methyl)piperazin-1-yl)-N-((1r,3r)-3-hydroxycyclobutyl)-6-methylpicolinamide] was tested, and the IC50 was ≤ 10 nM. In the case of `CCN1C(=O)Nc2c(F)c(CN3CCN(c4ccc(C(=O)NCCC#N)nc4C)CC3)cc3ncnc1c23` [Compound 8, N-(2-cyanoethyl)-5-(4-((3-ethyl-9-fluoro-2-oxo-2,3-dihydro-1H-pyrimido[4,5,6-de]quinazolin-8-yl)methyl)piperazin-1-yl)-6-methylpicolinamide], the IC50 is reported as ≤ 10 nM. In the case of `CCN1C(=O)Nc2c(F)c(CN3CCN(c4ccc(C(=O)NCC#N)nc4C)CC3)cc3ncnc1c23` [Compound 9, N-(cyanomethyl)-5-(4-((3-ethyl-9-fluoro-2-oxo-2,3-dihydro-1H-pyrimido[4,5,6-de]quinazolin-8-yl)methyl)piperazin-1-yl)-6-methylpicolinamide], the IC50 is reported as ≤ 10 nM. `CNC(=O)c1ccc(N2CCN(Cc3cc4ncc5c6c4c(c3F)NC(=O)N6CCC5)CC2)c(C)n1` [Compound 5, 5-(4-((7-Fluoro-5-oxo-2,3,5,6-tetrahydro-1H-[1,6]naphthyridino[1,8,7-cde]quinazolin-8-yl)methyl)piperazin-1-yl)-N,6-dimethylpicolinamide] was tested, and the IC50 was ≤ 10 nM. `CCN1C(=O)Nc2c(F)c(CN3CCN(c4ccc(C(=O)NCCO)nc4C)CC3)cc3ncnc1c23` [Compound 7, 5-(4-((3-Ethyl-9-fluoro-2-oxo-2,3-dihydro-1H-pyrimido[4,5,6-de]quinazolin-8-yl)methyl)piperazin-1-yl)-N-(2-hydroxyethyl)-6-methylpicolinamide] was tested, and the IC50 was ≤ 10 nM. For `CCN1C(=O)Nc2c(F)c(CN3CCN(c4ccc(C(=O)N[C@H]5C[C@H](O)C5)nc4C)CC3)cc3ncnc1c23` [Compound 10, 5-(4-((3-Ethyl-9-fluoro-2-oxo-2,3-dihydro-1H-pyrimido[4,5,6-de]quinazolin-8-yl)methyl)piperazin-1-yl)-N-((1r,3r)-3-hydroxycyclobutyl)-6-methylpicolinamide], the IC50 was ≤ 10 nM. In the case of `Cc1nc(C(=O)NC2CC2)ccc1N1CCN(Cc2cc3ncc4c5c3c(c2F)NC(=O)N5CCO4)CC1` [Compound 4, N-Cyclopropyl-5-(4-((6-fluoro-4-oxo-2,3,4,5-tetrahydro-1-oxa-3a,5,9-triazapyren-7-yl)methyl)piperazin-1-yl)-6-methylpicolinamide], the IC50 is reported as ≤ 10 nM. With `CCN1C(=O)Nc2cc(CN3CCN(c4ccc(C(=O)N[C@H]5C[C@@H](C#N)C5)nc4C)CC3)cc3ncnc1c23` [Compound 25, N-((1s,3s)-3-cyanocyclobutyl)-5-(4-((3-ethyl-2-oxo-2,3-dihydro-1H-pyrimido[4,5,6-de]quinazolin-8-yl)methyl)piperazin-1-yl)-6-methylpicolinamide] the IC50 was ≤ 10 nM. `Cc1nc(C(=O)NC2CC2)ccc1N1CCN(Cc2cc3nn4c5c3c(c2F)NC(=O)N5CCC4)CC1` [Compound 2, N-Cyclopropyl-5-(4-((7-fluoro-9-oxo-2,3,8,9-tetrahydro-1H-3a,4,8,9a-tetraazacyclopenta[def]phenanthren-6-yl)methyl)piperazin-1-yl)-6-methylpicolinamide] was tested, and the IC50 was 10 to 100 nM. `CCN1C(=O)Nc2cc(CN3CCN(c4ccc(C(=O)NC5(CC#N)CC5)nc4C)CC3)cc3ncnc1c23` [Compound 26, N-(1-(cyanomethyl)cyclopropyl)-5-(4-((3-ethyl-2-oxo-2,3-dihydro-1H-pyrimido[4,5,6-de]quinazolin-8-yl)methyl)piperazin-1-yl)-6-methylpicolinamide] was tested, and the IC50 was ≤ 10 nM. For `CCN1C(=O)Nc2cc(CN3CCN(c4ccc(C(=O)NC5(C#N)CC5)nc4C)CC3)cc3ncnc1c23` [Compound 17, N-(1-cyanocyclopropyl)-5-(4-((3-ethyl-2-oxo-2,3-dihydro-1H-pyrimido[4,5,6-de]quinazolin-8-yl)methyl)piperazin-1-yl)-6-methylpicolinamide], the IC50 was ≤ 10 nM. For `CNC(=O)c1ccc(N2CCN(Cc3cc4ncc5c6c4c(c3F)NC(=O)N6CCO5)CC2)c(C)n1` [Compound 3, 5-(4-((6-Fluoro-4-oxo-2,3,4,5-tetrahydro-1-oxa-3a,5,9-triazapyren-7-yl)methyl)piperazin-1-yl)-N,6-dimethylpicolinamide], the IC50 was ≤ 10 nM. With `CCN1C(=O)Nc2cc(CN3CCN(c4ccc(C(=O)N[C@H]5C[C@H](C#N)C5)nc4C)CC3)cc3ncnc1c23` [Compound 24, N-((1r,3r)-3-cyanocyclobutyl)-5-(4-((3-ethyl-2-oxo-2,3-dihydro-1H-pyrimido[4,5,6-de]quinazolin-8-yl)methyl)piperazin-1-yl)-6-methylpicolinamide] the IC50 was ≤ 10 nM. In the case of `CCN1C(=O)Nc2cc(CN3CCN(c4ccc(C(=O)NC5CC5)nc4C)CC3)cc3ncnc1c23` [Compound 16, N-cyclopropyl-5-(4-((3-ethyl-2-oxo-2,3-dihydro-1H-pyrimido[4,5,6-de]quinazolin-8-yl)methyl)piperazin-1-yl)-6-methylpicolinamide], the IC50 is reported as ≤ 10 nM. In the case of `CCN1C(=O)Nc2cc(CN3CCN(c4ccc(C(=O)NCCC#N)nc4C)CC3)cc3ncnc1c23` [Compound 14, N-(2-cyanoethyl)-5-(4-((3-ethyl-2-oxo-2,3-dihydro-1H-pyrimido[4,5,6-de]quinazolin-8-yl)methyl)piperazin-1-yl)-6-methylpicolinamide], the IC50 is reported as ≤ 10 nM. In the case of `CCN1C(=O)Nc2cc(CN3CCN(c4ccc(C(=O)N[C@H]5C[C@@H](O)C5)nc4C)CC3)cc3ncnc1c23` [Compound 19, 5-(4-((3-ethyl-2-oxo-2,3-dihydro-1H-pyrimido[4,5,6-de]quinazolin-8-yl)methyl)piperazin-1-yl)-N-((1s,3s)-3-hydroxycyclobutyl)-6-methylpicolinamide], the IC50 is reported as ≤ 10 nM. `CCN1C(=O)Nc2cc(CN3CCN(c4ccc(C(=O)NCCO)nc4C)CC3)cc3ncnc1c23` [Compound 13, 5-(4-((3-Ethyl-2-oxo-2,3-dihydro-1H-pyrimido[4,5,6-de]quinazolin-8-yl)methyl)piperazin-1-yl)-N-(2-hydroxyethyl)-6-methylpicolinamide] was tested, and the IC50 was ≤ 10 nM. Work on `CNC(=O)c1ccc(N2CCN(Cc3cc4nn5c6c4c(c3F)NC(=O)N6CCC5)CC2)c(C)n1` [Compound 1, 5-(4-((7-Fluoro-9-oxo-2,3,8,9-tetrahydro-1H-3a,4,8,9a-tetraazacyclopenta[def]phenanthren-6-yl)methyl)piperazin-1-yl)-N,6-dimethylpicolinamide] yielded an IC50 of 10 to 100 nM. With `CCN1C(=O)Nc2cc(CN3CCN(c4ccc(C(=O)NC5CCC5)nc4C)CC3)cc3ncnc1c23` [Compound 18, N-cyclobutyl-5-(4-((3-ethyl-2-oxo-2,3-dihydro-1H-pyrimido[4,5,6-de]quinazolin-8-yl)methyl)piperazin-1-yl)-6-methylpicolinamide] the IC50 was ≤ 10 nM. For `Cc1nc(C(=O)NC2CC2)ccc1N1CCN(Cc2cc3ncc4c5c3c(c2F)NC(=O)N5CCC4)CC1` [Compound 6, N-Cyclopropyl-5-(4-((7-fluoro-5-oxo-2,3,5,6-tetrahydro-1H-[1,6]naphthyridino[1,8,7-cde]quinazolin-8-yl)methyl)piperazin-1-yl)-6-methylpicolinamide], the IC50 was ≤ 10 nM.
